Assay results from patent US20250177448A1, “NEW USE OF PEG-PHOSPHOLIPID MOLECULES” (ICOAT MEDICAL AB, priority 2022, published 2025).
“Also recorded” adds a separate entry of the source.

Test system: blood group B antigen
Assay: Anti-blood group B antigen antibody binding to coated human erythrocytes, flow cytometry
Type: cell-based
Conditions: blood type B RBCs, 2 mg/ml in PBS, 30 min room temperature
Method: Human erythrocytes were isolated from healthy human donors. They were pre-selected for specific blood types and only individuals exposing blood type B antigens were used. Human blood was drawn from the donors using a vacuum blood collection tube (5 mL, EDTA-2Na treated, TERUMO Co., Tokyo, Japan).
After plasma and buffy coat were removed by centrifugation (15 min, 2500×g, 3 times), the erythrocytes were re-suspended in cold PBS.
This Example was approved by ethical committee of the University of Tokyo (KE17-13). Human red blood cells (RBC) were isolated from whole blood of a type-B donor and suspended in phosphate-buffered saline (PBS). A cell pellet of RBCs (5×10^7 cells) was incubated with PEG-phospholipid (20 μl, 2 mg/ml in PBS) or PBS (50 μl, as control) for 30 min at room temperature (RT, 20-25° C.) with gentle mixing. After wash with PBS by centrifugation (120×g, 4° C., 1 min) twice, Alexa488-labeled anti-blood group B antigen antibody (10 μl, used without dilution, Blood Group B antigen antibody [HEB-29], GeneTex) or PBS (10 μl) was mixed with the treated RBCs for 10 min at RT. After washing with PBS by centrifugation (120×g, 4° C., 1 min), RBC were re-suspended with PBS (1 ml) for flow cytometry measurements. […] Post analysis processing was carried out in FlowJo (BD).

N-(methylpolyoxyethylene oxycarbonyl)-1,2-dipalmitoyl-sn-glycero-3-phosphoethanolamine [PEG-phospholipid]
binding capacity of anti-blood group B antigen-antibody: effectively reduced; also recorded: effective masking
